test system: not listed separately; experiment: logP by HPLC on reversed-phase columns (C 18), EEC Directive 79/831 Annex V.A8; format: physicochemical; details: reversed-phase C18 HPLC column, pH 2.3, ** acidic range pH 2.3, 0.1% aqueous phosphoric acid and acetonitrile; read-out: log P
From the text: [table] The calibration is effected with unbranched alkan-2-ones (having 3 to 16 carbon atoms) with known logP values (logP values determined on the basis of the retention times by linear interpolation between two successive alkanones).

Question: For `CCOc1nccnc1-n1nc(C(F)(F)F)c(-c2ccc(Br)cc2)c1N` [Ex. 5], which chromatographic logP is on record?
Answer: 3.6

same assay, conditions: reversed-phase C18 HPLC column, pH 2.7, * LC-MS, acidic range pH 2.7, 0.1% aqueous formic acid and acetonitrile; read-out: log P

Question: Which chromatographic logP does the source give for `COc1nccnc1-n1nc(C(F)(F)F)c(-c2cc(Br)cc(Br)c2)c1N` [Ex. 22] here?
Answer: 4.1

Question: Which chromatographic logP does the source give for `COc1cc(-c2c(C(F)(F)C(F)(F)F)nn(-c3nccnc3OC)c2N)cc(Cl)c1OC` [Ex. 51] here?
Answer: 3.8

test system: adult engorged Boophilus microplus females of the SP-resistant Parkhurst strain; experiment: Boophilus microplus (dip); format: in vivo; details: Rhipicephalus microplus, 168 h, after 7 days, laying of fertile eggs, read-out: efficacy
Protocol: Boophilus microplus (dip)
Test animals: adult engorged Boophilus microplus females of the SP-resistant Parkhurst strain
Solvent: dimethyl sulphoxide
10 mg of active ingredient are dissolved in 0.5 ml of dimethyl sulphoxide. For the purpose of preparing a suitable formulation, the active ingredient solution is diluted with water to the concentration desired in each case. This active ingredient preparation is pipetted into tubes. 8-10 ticks are transferred into a further tube with holes. The tube is immersed into the active ingredient formulation, and all ticks are completely wetted. After the liquid has run out, the ticks are transferred onto filter discs in plastic dishes and stored in a climate-controlled room. The activity is assessed after 7 days by laying of fertile eggs. Eggs whose fertility is not outwardly visible are stored in glass tubes in a climate-controlled cabinet until the larvae hatch. Efficacy of 100% means that none of the ticks has laid any fertile eggs.

Question: Which pest or weed control at 100 ppm does the source give for `CCOc1nccnc1-n1nc(C(F)(F)F)c(-c2ccc(Br)cc2)c1N` [Ex. 5] here?
Answer: 100%

Question: For `COc1nccnc1-n1nc(C(F)(F)F)c(-c2cc(Br)cc(Br)c2)c1N` [Ex. 22], which pest or weed control at 100 ppm is on record?
Answer: 95%

Question: Which pest or weed control at 100 ppm does the source give for `COc1cc(-c2c(C(F)(F)C(F)(F)F)nn(-c3nccnc3OC)c2N)cc(Cl)c1OC` [Ex. 51] here?
Answer: 100%

test system: Boophilus microplus; experiment: Boophilus microplus test (BOOPMI injection); format: in vivo; details: Rhipicephalus microplus, 168 h; 20 μg animal; injection into the abdomen; after 7 days, laying of fertile eggs; read-out: efficacy
Protocol: Boophilus microplus Test (BOOPMI Injection) Solvent: dimethyl sulphoxide To prepare an appropriate active ingredient formulation, 10 mg of active ingredient are mixed with 0.5 ml of solvent and the concentrate is diluted with solvent to the desired concentration. The active ingredient solution is injected into the abdomen (Boophilus microplus), and the animals are transferred into dishes and stored in a climate-controlled room. The efficacy is assessed by laying of fertile eggs. After 7 days, the efficacy in % is determined. 100% means that none of the ticks has laid any fertile eggs.

Question: Which pest or weed control at 0.02 mg does the source give for `CCOc1nccnc1-n1nc(C(F)(F)F)c(-c2ccc(Br)cc2)c1N` [Ex. 5] here?
Answer: 100%

Question: For `COc1nccnc1-n1nc(C(F)(F)F)c(-c2cc(Br)cc(Br)c2)c1N` [Ex. 22], which pest or weed control at 0.02 mg is on record?
Answer: 100%

Question: Which pest or weed control at 0.02 mg does the source give for `COc1cc(-c2c(C(F)(F)C(F)(F)F)nn(-c3nccnc3OC)c2N)cc(Cl)c1OC` [Ex. 51] here?
Answer: 100%

test system: unfed adult fleas (Ctenocephalides felis); experiment: Ctenocephalides felis test (CTECFE); format: in vivo; details: Ctenocephalides felis, 48 h; 100 ppm in citrated cow's blood; after 2 days; read-out: efficacy (kill)
Protocol: Ctenocephalides felis Test ([…]) Solvent: 1 part by weight of dimethyl sulphoxide For the purpose of preparing an appropriate active ingredient formulation, 10 mg of active ingredient are mixed with 0.5 ml of dimethyl sulphoxide. A portion of the concentrate is diluted with citrated cow's blood and the desired concentration is established. About 20 unfed adult fleas (Ctenocephalides felis) are introduced into a chamber closed at the top and bottom with gauze. A metal cylinder, the bottom of which is closed with Parafilm, is placed onto the chamber. The cylinder contains the blood/active ingredient preparation, which can be imbibed by the fleas through the Parafilm membrane. After 2 days, the kill in % is determined. 100% means that all fleas have been killed; 0% means that none of the fleas have been killed.

Question: Which pest or weed control at 100 ppm does the source give for `COc1nccnc1-n1nc(C(F)(F)F)c(-c2cc(Br)cc(Br)c2)c1N` [Ex. 22] here?
Answer: 95%

Question: Which pest or weed control at 100 ppm does the source give for `COc1cc(-c2c(C(F)(F)C(F)(F)F)nn(-c3nccnc3OC)c2N)cc(Cl)c1OC` [Ex. 51] here?
Answer: 100%

test system: Lucilia cuprina larvae; experiment: Lucilia cuprina test (LUCICU); format: in vivo; details: 48 h, treated horse meat, after 2 days, read-out: efficacy (kill)
Protocol: (§1) Lucilia cuprina Test (LUCICU) Solvent: dimethyl sulphoxide To prepare an appropriate active ingredient formulation, 10 mg of active ingredient are mixed with 0.5 ml of dimethyl sulphoxide and the concentrate is diluted with water to the desired concentration. Vessels containing horse meat treated with the active ingredient preparation of the desired concentration are populated with about 20 Lucilia cuprina larvae. After 2 days, the kill in % is determined. 100% means that all of the larvae have been killed; 0% means that none of the larvae have been killed.

Question: For `CCOc1nccnc1-n1nc(C(F)(F)F)c(-c2ccc(Br)cc2)c1N` [Ex. 5], which pest or weed control at 100 ppm is on record?
Answer: 100%

Question: Which pest or weed control at 100 ppm does the source give for `COc1nccnc1-n1nc(C(F)(F)F)c(-c2cc(Br)cc(Br)c2)c1N` [Ex. 22] here?
Answer: 100%

Question: For `COc1cc(-c2c(C(F)(F)C(F)(F)F)nn(-c3nccnc3OC)c2N)cc(Cl)c1OC` [Ex. 51], which pest or weed control at 100 ppm is on record?
Answer: 100%

test system: adult Musca domestica; experiment: Musca domestica test; format: in vivo; details: 100 ppm; after 2 days
Protocol: as §1, with “Musca domestica” for “Lucilia cuprina”, “Test” for “Test (LUCICU)”, “a sponge” for “horse meat”, “adult Musca domestica.” for “about 20 Lucilia cuprina larvae.”, “flies” for “larvae”

Question: For `CCOc1nccnc1-n1nc(C(F)(F)F)c(-c2ccc(Br)cc2)c1N` [Ex. 5], which “efficacy (kill)” value is on record?
Answer: 80%

test system: green peach aphid (Myzus persicae); experiment: Myzus test (MYZUPE spray treatment); format: in vivo; details: Myzus persicae, 144 h, Chinese cabbage discs, after 6 days, read-out: efficacy
Protocol: Myzus Test (MYZUPE Spray Treatment) Solvent: 78 parts by weight of acetone • • 1.5 parts by weight of dimethylformamide Emulsifier: 0.5 part by weight of alkylaryl polyglycol ether To prepare an appropriate active ingredient preparation, 1 part by weight of active ingredient is mixed with the stated amounts of solvent and emulsifier, and the concentrate is diluted with emulsifier-containing water to the desired concentration. Discs of Chinese cabbage (Brassica pekinensis) infested by all stages of the green peach aphid (Myzus persicae) are sprayed with an active ingredient preparation of the desired concentration. After 6 days, the efficacy in % is determined. 100% means that all of the aphids have been destroyed; 0% means that none of the aphids have been destroyed.

Question: For `COc1nccnc1-n1nc(C(F)(F)F)c(-c2cc(Br)cc(Br)c2)c1N` [Ex. 22], which pest or weed control at 500 g/ha is on record?
Answer: 100%

test system: larvae of the mustard beetle (Phaedon cochleariae); experiment: Phaedon test (PHAECO spray treatment); format: in vivo; details: Phaedon cochleariae, 168 h, Chinese cabbage discs, after 7 days, read-out: efficacy
Protocol: Phaedon Test ([…] Spray Treatment) Solvent: 78.0 parts by weight of acetone • • 1.5 parts by weight of dimethylformamide Emulsifier: 0.5 part by weight of alkylaryl polyglycol ether To prepare an appropriate active ingredient preparation, 1 part by weight of active ingredient is mixed with the stated amounts of solvent and emulsifier, and the concentrate is diluted with emulsifier-containing water to the desired concentration. Discs of Chinese cabbage (Brassica pekinensis) are sprayed with an active ingredient preparation of the desired concentration and, after drying, populated with larvae of the mustard beetle (Phaedon cochleariae). After 7 days, the efficacy in % is determined. 100% means that all beetle larvae have been killed; 0% means that none of the beetle larvae have been killed.

Question: Which pest or weed control at 500 g/ha does the source give for `CCOc1nccnc1-n1nc(C(F)(F)F)c(-c2ccc(Br)cc2)c1N` [Ex. 5] here?
Answer: 100%

Question: Which pest or weed control at 500 g/ha does the source give for `COc1nccnc1-n1nc(C(F)(F)F)c(-c2cc(Br)cc(Br)c2)c1N` [Ex. 22] here?
Answer: 100%

Question: For `COc1cc(-c2c(C(F)(F)C(F)(F)F)nn(-c3nccnc3OC)c2N)cc(Cl)c1OC` [Ex. 51], which pest or weed control at 500 g/ha is on record?
Answer: 100%

test system: caterpillars of the armyworm (Spodoptera frugiperda); experiment: Spodoptera frugiperda test (SPODFR spray treatment); format: in vivo; details: Spodoptera frugiperda, foliar, 168 h, maize leaf discs, after 7 days, read-out: efficacy
Protocol: Spodoptera frugiperda Test (SPODFR Spray Treatment) Solvent: 78.0 parts by weight of acetone • • 1.5 parts by weight of dimethylformamide Emulsifier: 0.5 part by weight of alkylaryl polyglycol ether To prepare an appropriate active ingredient preparation, 1 part by weight of active ingredient is mixed with the stated amounts of solvent and emulsifier, and the concentrate is diluted with emulsifier-containing water to the desired concentration. Discs of maize leaves (Zea mays) are sprayed with an active ingredient preparation of the desired concentration and, after drying, populated with caterpillars of the armyworm (Spodoptera frugiperda). After 7 days, the efficacy in % is determined. 100% means that all caterpillars have been killed; 0% means that none of the caterpillars have been killed.

Question: Which pest or weed control at 500 g/ha does the source give for `COc1nccnc1-n1nc(C(F)(F)F)c(-c2cc(Br)cc(Br)c2)c1N` [Ex. 22] here?
Answer: 100%

Question: For `COc1cc(-c2c(C(F)(F)C(F)(F)F)nn(-c3nccnc3OC)c2N)cc(Cl)c1OC` [Ex. 51], which pest or weed control at 500 g/ha is on record?
Answer: 100%

test system: red spider mite (Tetranychus urticae); experiment: Tetranychus test, OP-resistant (TETRUR spray treatment); format: in vivo; details: Tetranychus urticae, foliar, 144 h, 500 g/ha, bean leaf discs, after 6 days, read-out: efficacy
Protocol: Tetranychus Test, OP-Resistant (TETRUR Spray Treatment)
Solvent: 78.0 parts by weight of acetone • • 1.5 parts by weight of dimethylformamide
Emulsifier: 0.5 part by weight of alkylaryl polyglycol ether
To prepare an appropriate active ingredient preparation, 1 part by weight of active ingredient is mixed with the stated amounts of solvent and emulsifier, and the concentrate is diluted with emulsifier-containing water to the desired concentration. Discs of bean leaves (Phaseolus vulgaris) infested by all stages of the red spider mite (Tetranychus urticae) are sprayed with an active ingredient preparation of the desired concentration. After 6 days, the efficacy in % is determined. 100% means that all spider mites have been killed; 0% means that none of the spider mites have been killed.

Question: Which pest or weed control at 500 g/ha does the source give for `CCOc1nccnc1-n1nc(C(F)(F)F)c(-c2ccc(Br)cc2)c1N` [Ex. 5] here?
Answer: 80%

Question: For `COc1nccnc1-n1nc(C(F)(F)F)c(-c2cc(Br)cc(Br)c2)c1N` [Ex. 22], which pest or weed control at 500 g/ha is on record?
Answer: 100%

Question: Which pest or weed control at 500 g/ha does the source give for `COc1cc(-c2c(C(F)(F)C(F)(F)F)nn(-c3nccnc3OC)c2N)cc(Cl)c1OC` [Ex. 51] here?
Answer: 80%

Reference: patent US8513260B2, “Pyrazinylpyrazoles” (Bayer CropScience AG, priority 2009, dated 2013)
